The experiment has as its target T1, mouse VISTA (mVISTA) (Mus musculus, UniProt Q9D659).
T1 construct: expressed in transfected cells; host or cells: Human embryonic kidney 293T cells
T1 sequence (Q9D659 33-308): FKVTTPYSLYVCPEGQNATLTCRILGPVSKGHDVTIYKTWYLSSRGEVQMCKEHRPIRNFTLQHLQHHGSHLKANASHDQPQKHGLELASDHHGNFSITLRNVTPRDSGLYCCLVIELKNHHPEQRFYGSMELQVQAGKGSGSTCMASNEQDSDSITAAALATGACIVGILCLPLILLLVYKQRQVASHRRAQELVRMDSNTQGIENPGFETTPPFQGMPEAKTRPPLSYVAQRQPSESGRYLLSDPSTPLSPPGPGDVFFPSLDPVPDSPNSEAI
Briefly: Cell-Based Binding High-Content Assay For mVISTA (HC CBA mVISTA). As to conditions: cell-based binding high-content assay, mVISTA; the 16th table; read-out: HC CBA mVISTA IC50. In short, it runs like this:
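Read-out: Alexa 647–streptavidin signal imaged on fixed, Hoechst-stained mVISTA-293T cells, with IC50 taken from a four-parameter logistic curve. Compounds competed with 2 nM biotinylated peptide for 30 min at room temperature, tested under both no-wash and wash (1 h compound, media exchange, 1 h) formats.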

Positions of bridges follow the written chain, without caps; N, C: chain ends. Non-standard residues stand in square brackets, D forms with d. Residues, ends and D or L forms follow the SMILES beside them. 2Nal = N[C@@H](Cc1ccc2ccccc2c1)C(=O)O; Tic = O=C(O)[C@@H]1Cc2ccccc2CN1; Cit = NC(=O)NCCC[C@H](N)C(=O)O; Ahp(2) = CCCCC[C@H](N)C(=O)O; NMeNle = CCCC[C@H](NC)C(=O)O; NHexGly = CCCCCCNCC(=O)O; Nle = CCCC[C@H](N)C(=O)O; Orn = NCCC[C@H](N)C(=O)O

Drawing on patent US20240218022A1, “ANTI-VISTA MACROCYCLIC PEPTIDES AND COMPOSITIONS” (BRISTOL-MYERS SQUIBB COMPANY, priority 2022, published 2024), this text covers IC50 for 16 molecules.

Take `CCCCCCN1CC(=O)N[C@@H](Cc2ccc(O)cc2)C(=O)N[C@@H](CCCCN)C(=O)N[C@@H](CC(=O)O)C(=O)N[C@@H](CCCN)C(=O)N[C@@H](CC(C)C)C(=O)N[C@@H](CCCCC)C(=O)N2CCC[C@H]2C(=O)N[C@@H](C(C)C)C(=O)N[C@@H](CO)C(=O)N[C@H](C(=O)NCC(=O)O)CSCC(=O)N[C@@H](Cc2ccc3ccccc3c2)C(=O)N[C@@H](Cc2ccc(O)cc2)C(=O)N[C@@H](CC(=O)O)C1=O` [Ex 1289] ({CH2CO}-[2Nal]YD[NHexGly]YKD[Orn]L[Ahp(2)]PVSCG-OH; thioether N-14): the half-inhibitory concentration (IC50) turned out to be 25.2 nM.
For `CCCCCCN1CC(=O)N[C@@H](Cc2ccc(O)cc2)C(=O)N[C@@H](CC(C)C)C(=O)NCC(=O)N[C@@H](CCCNC(=N)N)C(=O)N2Cc3ccccc3C[C@H]2C(=O)N[C@@H](CCCCC)C(=O)N2CCC[C@H]2C(=O)N[C@@H](C(C)C)C(=O)N[C@@H](CO)C(=O)N[C@H](C(=O)NCC(=O)O)CSCC(=O)N[C@@H](Cc2ccc3ccccc3c2)C(=O)N[C@@H](Cc2ccc(O)cc2)C(=O)N[C@@H](CC(=O)O)C1=O` [Ex 1290] ({CH2CO}-[2Nal]YD[NHexGly]YLGR[Tic][Ahp(2)]PVSCG-OH; thioether N-14) the value was 11.5 nM.
`CCCCCCN1CC(=O)N[C@@H](Cc2ccc(O)cc2)C(=O)N[C@@H](CC(C)C)C(=O)NCC(=O)N[C@@H](CCCNC(=N)N)C(=O)N(C)[C@@H](CCCC)C(=O)N[C@@H](CCCCC)C(=O)N2CCC[C@H]2C(=O)N[C@@H](C(C)C)C(=O)N[C@@H](CO)C(=O)N[C@H](C(=O)NCC(=O)O)CSCC(=O)N[C@@H](Cc2ccc3ccccc3c2)C(=O)N[C@@H](Cc2ccc(O)cc2)C(=O)N[C@@H](CC(=O)O)C1=O` [Ex 1291] ({CH2CO}-[2Nal]YD[NHexGly]YLGR[NMeNle][Ahp(2)]PVSCG-OH; thioether N-14): the IC50 was 5.1 nM.
The result for `CCCCCCN1CC(=O)N[C@@H](Cc2ccc(O)cc2)C(=O)N[C@@H](CC(C)C)C(=O)NCC(=O)N[C@@H](CCCNC(=N)N)C(=O)N[C@@H](Cc2ccc(O)cc2)C(=O)N[C@@H](CCCCC)C(=O)N2CCC[C@H]2C(=O)N[C@@H](C(C)C)C(=O)N[C@@H](CO)C(=O)N[C@H](C(=O)NCC(=O)O)CSCC(=O)N[C@@H](Cc2ccc3ccccc3c2)C(=O)N[C@@H](Cc2ccc(O)cc2)C(=O)N[C@@H](CC(=O)O)C1=O` [Ex 1292] ({CH2CO}-[2Nal]YD[NHexGly]YLGRY[Ahp(2)]PVSCG-OH; thioether N-14) reads 29.9 nM; that for `CCCCCCN1CC(=O)N[C@@H](Cc2ccc(O)cc2)C(=O)N[C@@H](CC(C)C)C(=O)NCC(=O)N[C@@H](CCCNC(=N)N)C(=O)N[C@@H](CC(N)=O)C(=O)N[C@@H](CCCCC)C(=O)N2CCC[C@H]2C(=O)N[C@@H](C(C)C)C(=O)N[C@@H](CO)C(=O)N[C@H](C(=O)NCC(=O)O)CSCC(=O)N[C@@H](Cc2ccc3ccccc3c2)C(=O)N[C@@H](Cc2ccc(O)cc2)C(=O)N[C@@H](CC(=O)O)C1=O` [Ex 1293] ({CH2CO}-[2Nal]YD[NHexGly]YLGRN[Ahp(2)]PVSCG-OH; thioether N-14), 19.9 nM; that for `CCCCCCN1CC(=O)N[C@@H](Cc2ccc(O)cc2)C(=O)N[C@@H](CC(C)C)C(=O)NCC(=O)N[C@@H](CCCNC(=N)N)C(=O)N(C)[C@@H](CCCC)C(=O)N[C@@H](CCCCC)C(=O)N2CCC[C@H]2C(=O)N[C@@H](C(C)C)C(=O)N[C@@H](CO)C(=O)N[C@H](C(=O)NCC(N)=O)CSCC(=O)N[C@@H](Cc2ccc3ccccc3c2)C(=O)N[C@@H](Cc2ccc(O)cc2)C(=O)N[C@@H](CC(=O)O)C1=O` [Ex 1294] ({CH2CO}-[2Nal]YD[NHexGly]YLGR[NMeNle][Ahp(2)]PVSCG-NH2; thioether N-14), 9.3 nM.
The result for `CCCCCCN1CC(=O)N[C@@H](Cc2ccc(O)cc2)C(=O)N[C@@H](CC(C)C)C(=O)NCC(=O)N[C@@H](CCCNC(=N)N)C(=O)N[C@@H](CC(N)=O)C(=O)N[C@@H](CCCCC)C(=O)N2CCC[C@H]2C(=O)N[C@@H](C(C)C)C(=O)N[C@@H](CO)C(=O)N[C@H](C(=O)NCC(N)=O)CSCC(=O)N[C@@H](Cc2ccc3ccccc3c2)C(=O)N[C@@H](Cc2ccc(O)cc2)C(=O)N[C@@H](CC(=O)O)C1=O` [Ex 1295] ({CH2CO}-[2Nal]YD[NHexGly]YLGRN[Ahp(2)]PVSCG-NH2; thioether N-14) reads 31.4 nM.
For `CCCCCCN1CC(=O)N[C@@H](Cc2ccc(O)cc2)C(=O)N[C@@H](CC(C)C)C(=O)NCC(=O)N[C@@H](CCCNC(=N)N)C(=O)N[C@@H](CCCCN)C(=O)N[C@@H](CCCCC)C(=O)N2CCC[C@H]2C(=O)N[C@@H](C(C)C)C(=O)N[C@@H](CO)C(=O)N[C@H](C(=O)NCC(=O)O)CSCC(=O)N[C@@H](Cc2ccc3ccccc3c2)C(=O)N[C@@H](Cc2ccc(O)cc2)C(=O)N[C@@H](CC(=O)O)C1=O` [Ex 1296] ({CH2CO}-[2Nal]YD[NHexGly]YLGRK[Ahp(2)]PVSCG-OH; thioether N-14) the value was 17.3 nM; for `CCCCCCN1CC(=O)N[C@@H](Cc2ccc(O)cc2)C(=O)N[C@@H](CC(C)C)C(=O)NCC(=O)N[C@@H](CCCNC(=N)N)C(=O)N[C@@H](Cc2ccc(O)cc2)C(=O)N[C@@H](CCCCC)C(=O)N2CCC[C@H]2C(=O)N[C@@H](C(C)C)C(=O)N[C@@H](CO)C(=O)N[C@H](C(=O)NCC(N)=O)CSCC(=O)N[C@@H](Cc2ccc3ccccc3c2)C(=O)N[C@@H](Cc2ccc(O)cc2)C(=O)N[C@@H](CC(=O)O)C1=O` [Ex 1297] ({CH2CO}-[2Nal]YD[NHexGly]YLGRY[Ahp(2)]PVSCG-NH2; thioether N-14), 35.7 nM.
Consider `CCCCCCN1CC(=O)N[C@@H](Cc2ccc(O)cc2)C(=O)N[C@@H](CC(C)C)C(=O)NCC(=O)N[C@@H](CCCNC(=N)N)C(=O)N[C@@H](Cc2ccc(O)cc2)C(=O)N[C@@H](CCCCC)C(=O)N2CCC[C@H]2C(=O)N[C@@H](C(C)C)C(=O)N[C@@H](CC(=O)O)C(=O)N[C@H](C(=O)NCC(N)=O)CSCC(=O)N[C@@H](Cc2ccc3ccccc3c2)C(=O)N[C@@H](Cc2ccc(O)cc2)C(=O)N[C@@H](CC(=O)O)C1=O` [Ex 1298] ({CH2CO}-[2Nal]YD[NHexGly]YLGRY[Ahp(2)]PVDCG-NH2; thioether N-14), for which the IC50 was determined as 36.1 nM.
For `CCCCCCN1CC(=O)N[C@@H](Cc2ccc(O)cc2)C(=O)N[C@@H](CC(C)C)C(=O)NCC(=O)N[C@@H](CCCNC(=N)N)C(=O)N[C@@H](Cc2ccc(O)cc2)C(=O)N[C@@H](CCCCC)C(=O)N2CCC[C@H]2C(=O)N[C@@H](C(C)C)C(=O)N[C@@H](C(C)C)C(=O)N[C@H](C(=O)NCC(=O)O)CSCC(=O)N[C@@H](Cc2ccc3ccccc3c2)C(=O)N[C@@H](Cc2ccc(O)cc2)C(=O)N[C@@H](CC(=O)O)C1=O` [Ex 1299] ({CH2CO}-[2Nal]YD[NHexGly]YLGRY[Ahp(2)]PVVCG-OH; thioether N-14) the value was 33.2 nM; for `CCCCCCN1CC(=O)N[C@@H](Cc2ccc(O)cc2)C(=O)N[C@@H](CCCC)C(=O)N[C@@H](CC(N)=O)C(=O)N[C@@H](CCCNC(N)=O)C(=O)N[C@@H](CC(C)C)C(=O)N[C@@H](CCCCC)C(=O)N2CCC[C@H]2C(=O)N[C@@H](C(C)C)C(=O)N[C@@H](CC(=O)O)C(=O)N[C@H](C(=O)NCC(=O)O)CSCC(=O)N[C@@H](Cc2ccc3ccccc3c2)C(=O)N[C@@H](Cc2ccc(O)cc2)C(=O)N[C@@H](CC(=O)O)C1=O` [Ex 1300] ({CH2CO}-[2Nal]YD[NHexGly]Y[Nle]N[Cit]L[Ahp(2)]PVDCG-OH; thioether N-14), 4.9 nM.
The result for `CCCCCCN1CC(=O)N[C@@H](Cc2ccc(O)cc2)C(=O)N[C@@H](CCCC)C(=O)N[C@@H](CC(N)=O)C(=O)N[C@@H](CCCNC(N)=O)C(=O)N(C)[C@@H](CCCC)C(=O)N[C@@H](CCCCC)C(=O)N2CCC[C@H]2C(=O)N[C@@H](C(C)C)C(=O)N[C@@H](CC(=O)O)C(=O)N[C@H](C(=O)NCC(=O)O)CSCC(=O)N[C@@H](Cc2ccc3ccccc3c2)C(=O)N[C@@H](Cc2ccc(O)cc2)C(=O)N[C@@H](CC(=O)O)C1=O` [Ex 1301] ({CH2CO}-[2Nal]YD[NHexGly]Y[Nle]N[Cit][NMeNle][Ahp(2)]PVDCG-OH; thioether N-14) reads 5.6 nM; that for `CCCCCCN1CC(=O)N[C@@H](Cc2ccc(O)cc2)C(=O)N[C@@H](CCCCC)C(=O)NCC(=O)N[C@@H](CCCNC(N)=O)C(=O)N[C@@H](CC(C)C)C(=O)N[C@@H](CCCCC)C(=O)N2CCC[C@H]2C(=O)N[C@@H](C(C)C)C(=O)N[C@@H](CO)C(=O)N[C@H](C(=O)NCC(N)=O)CSCC(=O)N[C@@H](Cc2ccc3ccccc3c2)C(=O)N[C@@H](Cc2ccc(O)cc2)C(=O)N[C@@H](CC(=O)O)C1=O` [Ex 1302] ({CH2CO}-[2Nal]YD[NHexGly]Y[Ahp(2)]G[Cit]L[Ahp(2)]PVSCG-NH2; thioether N-14), 7.5 nM.
The result for `CCCCCCN1CC(=O)N[C@@H](Cc2ccc(O)cc2)C(=O)N[C@@H](CCCC)C(=O)NCC(=O)N[C@@H](CCCNC(N)=O)C(=O)N[C@@H](CC(C)C)C(=O)N[C@@H](CCCCC)C(=O)N2CCC[C@H]2C(=O)N[C@@H](C(C)C)C(=O)N[C@@H](CC(=O)O)C(=O)N[C@H](C(=O)NCC(N)=O)CSCC(=O)N[C@@H](Cc2ccc3ccccc3c2)C(=O)N[C@@H](Cc2ccc(O)cc2)C(=O)N[C@@H](CC(=O)O)C1=O` [Ex 1303] ({CH2CO}-[2Nal]YD[NHexGly]Y[Nle]G[Cit]L[Ahp(2)]PVDCG-NH2; thioether N-14) reads 8.8 nM.
In the case of `CCCCCCN1CC(=O)N[C@@H](Cc2ccc(O)cc2)C(=O)N[C@@H](CCCC)C(=O)N[C@@H](CC(N)=O)C(=O)N[C@@H](CCCNC(=N)N)C(=O)N2Cc3ccccc3C[C@H]2C(=O)N[C@@H](CCCCC)C(=O)N2CCC[C@H]2C(=O)N[C@@H](C(C)C)C(=O)N[C@@H](CO)C(=O)N[C@H](C(=O)NCC(N)=O)CSCC(=O)N[C@@H](Cc2ccc3ccccc3c2)C(=O)N[C@@H](Cc2ccc(O)cc2)C(=O)N[C@@H](CC(=O)O)C1=O` [Ex 1304] ({CH2CO}-[2Nal]YD[NHexGly]Y[Nle]NR[Tic][Ahp(2)]PVSCG-NH2; thioether N-14), the IC50 was 31.5 nM.

One may read the IC50 as the point on the concentration scale where inhibition reaches its midpoint.
